From patent publication US20240327347A1, “COMPOUNDS AND METHODS FOR TREATING 5-HT2 […]” (Board of Supervisors of Louisiana State University and …, priority 2021, published 2024) come the findings set out here.

The experiment can be described thus: structure-activity relationship for anti-inflammatory activity (FIG. 3). Particulars: SAR results. An excerpt:
The loss or modification of the 5-methoxy results in reduced efficacy in DOx/2Cx compounds.
We determined that DOx/2Cx structures with a modified or missing 5-methoxy have reduced anti-inflammatory activity (FIG. 3). […] Without wishing to be bound by theory, the 5-methoxy of the DOx/2Cx compounds can engage residues in the binding pocket similar to those that engage the 4-OH of tryptamines, although the residues engaged by tryptamines have not been elucidated because the crystal structure of a tryptamine in the 5-HT2A receptor has not yet been published. […] Thus, without wishing to be bound by theory, a water molecule also must be present there to form a hydrogen bond bridge from the oxygen to N343.
The SAR results as shown in FIG. 3 are consistent with engagement of TM6 N343 by the 5-methoxy or 4-OH of DOx/2Cx or tryptamines, respectively, through a hydrogen bond bridge with a water molecule to produce the conformational change to recruit anti-inflammatory effectors to the activated receptor.

Consider `CN(C)CCc1c[nH]c2ccccc12` [N,N-DMT, N,N-dimethyltryptamine], for which the anti-inflammatory efficacy/activity result is “complete loss of efficacy”.
